According to patent US20230141101A1, “PDE4 INHIBITOR COMPOUND AND MEDICAL USE THEREOF” (Suzhou Longbotai Pharmaceuticals Co., Ltd., priority 2020, published 2023):

Key:
Assay type in all cases: biochemical
Conditions in all cases: 20 nM
[1] = target: T1, PDE4A1A (Homo sapiens, UniProt P27815); assay: PDE4 inhibitory activity assay (FAM-cAMP enzymatic reaction), PDE4A1A
T1 construct: purchased BPS 60040
Summary of the method: (§1)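 Each isoform is incubated with test compound for 15 min at room temperature before FAM-cAMP substrate starts a 30-min reaction.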

[2] = target: T2, PDE4B1 (Homo sapiens, UniProt Q07343); assay: PDE4 inhibitory activity assay (FAM-cAMP enzymatic reaction), PDE4B1
T2 construct: purchased BPS 60041
T2 sequence (Q07343 whole entry): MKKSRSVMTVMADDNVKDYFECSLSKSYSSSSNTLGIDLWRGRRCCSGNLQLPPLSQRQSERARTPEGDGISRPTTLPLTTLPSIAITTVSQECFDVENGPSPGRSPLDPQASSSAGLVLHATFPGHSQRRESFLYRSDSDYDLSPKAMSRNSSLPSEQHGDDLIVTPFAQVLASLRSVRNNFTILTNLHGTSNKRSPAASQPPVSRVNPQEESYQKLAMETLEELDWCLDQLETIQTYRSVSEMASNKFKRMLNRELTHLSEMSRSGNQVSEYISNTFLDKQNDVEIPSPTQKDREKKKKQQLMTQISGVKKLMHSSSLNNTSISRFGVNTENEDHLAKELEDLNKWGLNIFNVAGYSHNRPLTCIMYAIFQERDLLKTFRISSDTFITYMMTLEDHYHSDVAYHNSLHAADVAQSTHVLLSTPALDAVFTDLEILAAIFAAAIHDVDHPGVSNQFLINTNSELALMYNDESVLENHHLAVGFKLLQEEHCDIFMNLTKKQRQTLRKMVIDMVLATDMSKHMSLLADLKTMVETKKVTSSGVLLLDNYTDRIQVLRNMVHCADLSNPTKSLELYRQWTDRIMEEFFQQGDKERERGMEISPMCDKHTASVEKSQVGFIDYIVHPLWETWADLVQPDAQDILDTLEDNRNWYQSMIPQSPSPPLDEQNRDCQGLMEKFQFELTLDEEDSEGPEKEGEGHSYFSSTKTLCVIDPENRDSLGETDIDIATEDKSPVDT
Summary of the method: as §1

[3] = target: PDE4D2 (Homo sapiens, UniProt Q08499); assay: PDE4 inhibitory activity assay (FAM-cAMP enzymatic reaction), PDE4D2
Sequence of PDE4D2 (Q08499 303-809): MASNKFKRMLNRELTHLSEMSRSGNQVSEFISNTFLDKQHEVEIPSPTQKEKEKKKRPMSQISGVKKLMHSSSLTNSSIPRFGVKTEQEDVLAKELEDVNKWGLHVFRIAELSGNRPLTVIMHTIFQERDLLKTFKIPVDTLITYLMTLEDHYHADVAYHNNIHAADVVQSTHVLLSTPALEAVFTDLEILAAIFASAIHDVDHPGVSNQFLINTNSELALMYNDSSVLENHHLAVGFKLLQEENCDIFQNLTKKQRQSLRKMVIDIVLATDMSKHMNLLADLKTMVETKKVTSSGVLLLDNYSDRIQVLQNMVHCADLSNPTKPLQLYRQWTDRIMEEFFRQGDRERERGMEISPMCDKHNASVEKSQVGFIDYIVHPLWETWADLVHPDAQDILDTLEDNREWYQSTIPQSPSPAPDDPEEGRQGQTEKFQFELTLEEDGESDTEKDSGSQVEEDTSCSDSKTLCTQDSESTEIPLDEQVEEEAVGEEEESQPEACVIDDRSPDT
Summary of the method: as §1

T1 sequence (P27815 1-647 isoform P27815-4): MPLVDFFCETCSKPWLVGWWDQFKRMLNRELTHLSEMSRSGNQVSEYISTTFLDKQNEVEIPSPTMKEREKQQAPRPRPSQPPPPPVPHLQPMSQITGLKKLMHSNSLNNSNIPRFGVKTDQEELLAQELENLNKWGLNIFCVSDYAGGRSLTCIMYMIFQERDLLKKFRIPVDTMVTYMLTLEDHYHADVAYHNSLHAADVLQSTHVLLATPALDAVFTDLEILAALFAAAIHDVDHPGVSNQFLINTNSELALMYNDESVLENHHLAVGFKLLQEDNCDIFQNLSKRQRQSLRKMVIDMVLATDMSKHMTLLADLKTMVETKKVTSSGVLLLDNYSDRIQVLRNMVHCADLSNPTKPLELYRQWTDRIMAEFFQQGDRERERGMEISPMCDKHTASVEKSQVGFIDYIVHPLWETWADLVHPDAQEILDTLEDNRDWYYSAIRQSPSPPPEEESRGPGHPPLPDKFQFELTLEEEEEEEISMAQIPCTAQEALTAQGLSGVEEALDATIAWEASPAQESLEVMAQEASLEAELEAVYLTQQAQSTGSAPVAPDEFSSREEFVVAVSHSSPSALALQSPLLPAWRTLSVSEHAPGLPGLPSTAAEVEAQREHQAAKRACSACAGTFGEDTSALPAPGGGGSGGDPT

SMILES	PDE4 A1 inhibitory effect at 20 nM [1]	PDE4 B1 inhibitory effect at 20 nM [2]	PDE4 D2 inhibitory effect at 20 nM [3]
CCOc1nc([C@H](CS(C)(=O)=O)n2c(=O)[nH]c3c(C)c(-c4cccc(F)c4F)cnc32)ccc1OC [Ex. 26, (R)-6-(2,3-difluorophenyl)-3-(1-(6-ethoxy-5-methoxypyridin-2-yl)-2-(methylsulfonyl)ethyl)-7-methyl-1H-imidazo[4,5-b]pyridin-2(3H)-one]	−	−	−
CCOc1nc([C@@H](CS(C)(=O)=O)n2c(=O)n(C)c3cc(-c4cc(F)ccc4OC)cnc32)ccc1OC [Ex. 118, (S)-6-(5-fluoro-2-methoxyphenyl)-3-(1-(6-ethoxy-5-methoxypyridin-2-yl)-2-(methylsulfonyl)ethyl)-1-methyl-1H-imidazo[4,5-b]pyridin-2(3H)-one]	+	+	+
CCOc1nc([C@@H](CS(C)(=O)=O)n2c(=O)[nH]c3cc(C(=O)OC(C)C)ccc32)ccc1OC [Ex. 213, (S)-isopropyl 1-(1-(6-ethoxy-5-methoxypyridin-2-yl)-2-(methylsulfonyl)ethyl)-2-oxo-2,3-dihydro-1H-benzo[d]imidazole-5-carboxylate]	+	+	+
CCOc1nc([C@H](CS(C)(=O)=O)n2c(=O)[nH]c3cc(-c4ccccn4)ccc32)ccc1OC [Ex. 195, (R)-1-(1-(6-ethoxy-5-methoxypyridin-2-yl)-2-(methylsulfonyl)ethyl)-5-(pyridin-2-yl)-1H-benzo[d]imidazol-2(3H)-one]	−	−	−
CCOc1nc([C@@H](CS(C)(=O)=O)n2c(=O)[nH]c3cc(-c4cccc(F)c4C)ccc32)ccc1OC [Ex. 173, (S)-5-(3-fluoro-2-methylphenyl)-1-(1-(6-ethoxy-5-methoxypyridin-2-yl)-2-(methylsulfonyl)ethyl)-1H-benzo[d]imidazol-2(3H)-one]	+	+	+

Next, values leading:

PDE4 A1 inhibitory effect at 20 nM [1]	PDE4 B1 inhibitory effect at 20 nM [2]	PDE4 D2 inhibitory effect at 20 nM [3]	SMILES
+	+	+	CCOc1nc([C@@H](CS(C)(=O)=O)n2c(=O)n(C)c3cc(-c4cc(F)ccc4C)cnc32)ccc1OC [Ex. 110, (S)-6-(5-fluoro-2-methylphenyl)-3-(1-(6-ethoxy-5-methoxypyridin-2-yl)-2-(methylsulfonyl)ethyl)-1-methyl-1H-imidazo[4,5-b]pyridin-2(3H)-one]
+	+	+	CCOc1nc([C@@H](CS(C)(=O)=O)n2c(=O)n(C)c3cc(-c4ccc(C)cc4F)ccc32)ccc1OC [Ex. 180, (S)-5-(2-fluoro-4-methylphenyl)-1-(1-(6-ethoxy-5-methoxypyridin-2-yl)-2-(methylsulfonyl)ethyl)-3-methyl-1H-benzo[d]imidazol-2(3H)-one]
+	+	+	CCOc1nc([C@@H](CS(C)(=O)=O)n2c(=O)n(C)c3cc(-c4cc(C)ccc4C)ccc32)ccc1OC [Ex. 165, (S)-5-(2,5-dimethylphenyl)-1-(1-(6-ethoxy-5-methoxypyridin-2-yl)-2-(methylsulfonyl)ethyl)-3-methyl-1H-benzo[d]imidazol-2(3H)-one]
+	+	+	CCOc1nc([C@@H](CS(C)(=O)=O)n2c(=O)n(C)c3cc(-c4ccc(F)cc4)ccc32)ccc1OC [Ex. 137, (S)-1-(1-(6-ethoxy-5-methoxypyridin-2-yl)-2-(methylsulfonyl)ethyl)-3-methyl-5-(4-fluorophenyl)-1H-benzo[d]imidazol-2(3H) one]
